What all share (assay type): biochemical
For one experiment, the target named is DAT (Rattus norvegicus, UniProt P23977). The experiment in a line: DA release assay (synaptosomes, [3H]MPP+). The arrangement: the supernatants were retained on ice (synaptosomal preparation); from tissue; host or cells: rat caudate synaptosomes. On the procedure: (§1) Rat caudate (for DA release) or whole brain minus cerebellum and caudate (for NE and 5-HT release), was homogenized in ice-cold 10% sucrose containing 1 μM reserpine. Nomifensine (100 nM) and GBR12935 (100 nM) were added to the sucrose solution for [^3H]5-HT release experiments to block any potential [^3H]5-HT reuptake into NE and DA nerve terminals. For the DA release assay, 100 nM desipramine and 100 nM citalopram were added to block [^3H]MPP^+ uptake into NE and 5-HT nerves. For the NE release assay, 50 nM GBR12935 and 100 nM citalopram were added to block [^3H]MPP^+ uptake into DA and 5-HT nerves. After 12 strokes with a Potter-Elvehjem homogenizer, homogenates were centrifuged at 1000×g for 10 min at 0-4° C. and the supernatants were retained on ice (synaptosomal preparation).
(§2) After incubation to steady state, 850 μl of synaptosomes preloaded with [^3H]ligand were added to 12×75 mm polystyrene test tubes that contained 150 μl test drug in uptake buffer plus 1 mg/ml BSA. After 5 min (^3H]5-HT) or 30 min (NE and DA assays) the release reaction was terminated by dilution with 4 ml wash buffer (10 mM Tris-HCl pH 7.4 containing 0.9% NaCl at 25° C.) followed by rapid vacuum filtration over Whatman GF/B filters using a Brandel Harvester. The filters were rinsed twice with 4 ml wash buffer using the Brandel Harvester, and the retained tritium was counted by a Taurus liquid scintillation counter at 40% efficiency after an overnight extraction in 3 ml Cytoscint (ICN).
(§3) In substrate reversal experiments, statistical significance was determined using the Student's t-test.

The target in a further experiment is T1, NET (Rattus norvegicus, UniProt Q63380).
T1 construct: the supernatants were retained on ice (synaptosomal preparation); from tissue; host or cells: rat whole brain minus cerebellum and caudate, synaptosomes
The experiment in a line: NE release assay (synaptosomes, [3H]MPP+). The settings on record: for NE Rel (%): % EC50 of release. On the procedure: as §1, §2, §3

For the next experiment, the target named is SERT (Rattus norvegicus, UniProt P31652). The experiment in a line: 5-HT release assay (synaptosomes, [3H]5-HT). On the set-up: the supernatants were retained on ice (synaptosomal preparation); from tissue; host or cells: rat whole brain minus cerebellum and caudate, synaptosomes. As to conditions: for 5HT Rel (%): Table 4, % EC50 of release. As to the method:
as §1, §2, §3

pEC50: −log10 of the molar value. Where a name gives a salt, the structure may show the parent alone. Read-outs that look alike come from different tables or passages of the source.

DAT, sequence (P23977 whole entry): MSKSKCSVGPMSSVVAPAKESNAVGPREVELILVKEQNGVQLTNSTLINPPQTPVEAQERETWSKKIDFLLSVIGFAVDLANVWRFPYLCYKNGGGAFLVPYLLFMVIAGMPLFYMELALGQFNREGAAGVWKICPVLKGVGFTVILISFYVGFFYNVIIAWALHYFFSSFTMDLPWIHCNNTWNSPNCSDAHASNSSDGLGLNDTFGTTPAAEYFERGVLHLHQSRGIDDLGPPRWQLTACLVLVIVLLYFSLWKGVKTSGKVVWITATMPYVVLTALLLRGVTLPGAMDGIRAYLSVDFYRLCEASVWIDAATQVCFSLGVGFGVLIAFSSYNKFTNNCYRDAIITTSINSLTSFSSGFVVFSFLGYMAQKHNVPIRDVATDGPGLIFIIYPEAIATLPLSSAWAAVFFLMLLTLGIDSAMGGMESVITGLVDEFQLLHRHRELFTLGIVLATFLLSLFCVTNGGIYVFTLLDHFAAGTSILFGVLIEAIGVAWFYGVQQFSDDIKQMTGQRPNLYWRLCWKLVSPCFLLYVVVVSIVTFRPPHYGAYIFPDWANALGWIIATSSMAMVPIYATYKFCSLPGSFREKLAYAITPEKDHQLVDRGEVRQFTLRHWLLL
SERT, sequence (P31652 whole entry): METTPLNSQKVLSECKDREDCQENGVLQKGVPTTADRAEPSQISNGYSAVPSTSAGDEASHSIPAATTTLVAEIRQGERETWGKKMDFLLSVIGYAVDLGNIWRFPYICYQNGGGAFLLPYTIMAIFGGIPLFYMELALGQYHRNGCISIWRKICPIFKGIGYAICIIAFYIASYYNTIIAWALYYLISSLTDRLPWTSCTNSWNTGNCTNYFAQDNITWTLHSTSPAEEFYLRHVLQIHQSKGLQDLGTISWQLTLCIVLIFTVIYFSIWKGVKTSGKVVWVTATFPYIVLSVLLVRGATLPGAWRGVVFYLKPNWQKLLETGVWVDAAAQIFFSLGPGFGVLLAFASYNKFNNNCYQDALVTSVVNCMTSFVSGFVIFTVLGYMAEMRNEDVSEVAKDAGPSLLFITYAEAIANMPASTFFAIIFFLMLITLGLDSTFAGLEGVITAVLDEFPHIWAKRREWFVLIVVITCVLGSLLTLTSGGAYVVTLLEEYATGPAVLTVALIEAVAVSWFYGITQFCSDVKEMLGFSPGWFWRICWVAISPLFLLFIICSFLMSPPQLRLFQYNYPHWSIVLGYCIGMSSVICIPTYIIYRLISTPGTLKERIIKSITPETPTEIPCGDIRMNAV
T1 sequence (Q63380 1-617): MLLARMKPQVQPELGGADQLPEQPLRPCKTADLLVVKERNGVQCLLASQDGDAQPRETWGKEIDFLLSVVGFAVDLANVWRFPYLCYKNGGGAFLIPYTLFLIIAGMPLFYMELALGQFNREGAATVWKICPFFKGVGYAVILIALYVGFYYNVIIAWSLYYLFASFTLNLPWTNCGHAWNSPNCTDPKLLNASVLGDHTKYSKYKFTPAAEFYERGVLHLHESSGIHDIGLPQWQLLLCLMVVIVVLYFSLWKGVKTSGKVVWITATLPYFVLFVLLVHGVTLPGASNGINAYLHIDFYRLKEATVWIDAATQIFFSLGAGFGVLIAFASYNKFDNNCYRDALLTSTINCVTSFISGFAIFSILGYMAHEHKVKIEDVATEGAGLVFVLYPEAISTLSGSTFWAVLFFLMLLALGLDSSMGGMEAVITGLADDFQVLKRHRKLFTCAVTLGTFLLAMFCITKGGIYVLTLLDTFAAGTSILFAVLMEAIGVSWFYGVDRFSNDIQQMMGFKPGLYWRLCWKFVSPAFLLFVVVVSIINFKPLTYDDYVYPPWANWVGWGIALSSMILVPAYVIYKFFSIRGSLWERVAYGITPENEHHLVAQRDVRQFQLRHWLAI

Take `CC1NCCOC1c1ccccc1` (single isomer, unassigned; (-)) [(−)-isomer, reference compound]: the “DA releaser activity (in words)” value on DAT was “active as a releaser, but is not as potent”.

In the case of `C[C@H]1NCCOC1c1cccc(F)c1` (stereo in doubt) [PAL593, 2-(3-fluoro-phenyl)-3-methyl-morpholine], the pEC50 at NET (NE Rel (EC50), Table 4) was 7.52; at DAT, 7.37; on SERT, 5.59.

In the case of `C[C@H]1CO[C@@H](c2ccccc2)CN1` [PAL 730, (2S,5S)-5-Methyl-2-phenyl-morpholine], the pEC50 at NET is 7.10; on DAT it was 6.67; at SERT, 6.97.

Consider `C[C@H]1CO[C@@H](c2cccc(Cl)c2)CN1` [PAL 738, (2S,5S)-2-(3-Chloro-phenyl)-5-methyl-morpholine], for which the negative-log EC50 (pEC50) at NET is 7.19; at DAT, 7.24; on SERT, 7.64.

On to `Cc1ccc(C2OCCNC2C)cc1` (centres unmarked) [PAL 747, 3-Methyl-2-(4′-Tolyl)morpholine fumarate], for which the “DA Rel (%)” value on DAT (Table 4, % EC50 of release) was determined as 91%.

With `CC1NCCOC1c1ccc(F)cc1.CC1NCCOC1c1ccc(F)cc1.O=C(O)/C=C/C(=O)O` (centres unmarked) [PAL 748, 3-Methyl-[(4′-Fluoro)-2-Phenyl]morpholine (0.5 fumarate)], the “NE Rel (%)” value at NET (Table 4) was 93%. Further, the “DA Rel (%)” value at DAT (Table 4, % EC50 of release) was determined as 98%. Moreover, the “5HT Rel (%)” value at SERT worked out at 94%.

Regarding `CC1NCCOC1c1ccc(Cl)cc1.CC1NCCOC1c1ccc(Cl)cc1.O=C(O)/C=C/C(=O)O` (centres unmarked) [PAL 749, 3-Methyl-[(4′-Chloro)-2-Phenyl]morpholine (0.5 fumarate)], the “NE Rel (%)” value on NET (Table 4) was determined as 93%. Besides, the “DA Rel (%)” value on DAT (Table 4, % EC50 of release) came out at 88%. In addition, the “5HT Rel (%)” value at SERT is recorded as 76%.

For `COc1ccc(C2OCCNC2C)cc1.Cl` (centres unmarked) [PAL 751, 3-Methyl-[(4′-Methoxy)-2-Phenyl]morpholine hydrochloride], the “NE Rel (%)” value at NET (Table 4) is on record as 84%. The “DA Rel (%)” value at DAT (Table 4, % EC50 of release) is recorded as 50%. The “5HT Rel (%)” value at SERT came out at 64%.

`CC1NCCOC1c1ccc(C#N)cc1.CC1NCCOC1c1ccc(C#N)cc1.O=C(O)/C=C/C(=O)O` (centres unmarked) [PAL 772, 3-Methyl-[(4′-Cyano)-2-Phenyl]morpholine (0.5 fumarate)]: on NET (Table 4), the “NE Rel (%)” value stood at 100%. Moreover, the “DA Rel (%)” value at DAT (Table 4, % EC50 of release) is recorded as 0%. On SERT, the “5HT Rel (%)” value amounted to 53%.

As for `Cc1cccc(C2OCCNC2C)c1.Cc1cccc(C2OCCNC2C)c1.O=C(O)/C=C/C(=O)O` (centres unmarked) [PAL 773, 3-Methyl-2-(3′-Tolyl)morpholine (0.5 fumarate)], on NET (Table 4), the “NE Rel (%)” value came to 80%. In addition, at DAT (Table 4, % EC50 of release), the “DA Rel (%)” value is 98%. Moreover, the “5HT Rel (%)” value on SERT amounted to 82%.

For the compound `CC1NCCOC1c1cccc(O)c1.Cl` (centres unmarked) [PAL 780, 3-Methyl-[(3′-Hydroxy)-2-Phenyl]morpholine hydrochloride], at NET (Table 4), the “NE Rel (%)” value is 100%. For the same compound, on DAT (Table 4, % EC50 of release), the “DA Rel (%)” value was found to be 97%. Further, the “5HT Rel (%)” value at SERT worked out at 70%.

Take `COc1cccc([C@H]2CN[C@@H](C)CO2)c1` [PAL 880, (2S,5S)-2-(3-Methoxy-phenyl)-5-methyl-morpholine]: the “DA Rel (%)” value on DAT (Table 5) came to 56%.

As to `Cc1cccc([C@H]2CN[C@@H](C)CO2)c1` [PAL 886, (2S,5S)-5-Methyl-2-m-tolyl-morpholine], at DAT (Table 5), the “DA Rel (%)” value was found to be 86%.

For the compound `C[C@H]1CO[C@@H](c2cccc(F)c2)CN1` [PAL 890, (2S,5S)-2-(3-Fluoro-phenyl)-5-methyl-morpholine], the “DA Rel (%)” value on DAT (Table 5) stood at 96%.

With `C[C@H]1CO[C@@H](c2cccc(C(F)(F)F)c2)CN1` [PAL 895, (2S,5S)-5-Methyl-2-(3-trifluoromethyl-phenyl)-morpholine], the “DA Rel (%)” value on DAT (Table 5) amounted to 45%.

`C[C@H]1CO[C@@H](c2ccc(F)cc2)CN1` [PAL 903, (2S,5S)-2-(4-Fluoro-phenyl)-5-methyl-morpholine]: the “DA Rel (%)” value at DAT (Table 5) is reported as 65%.

With `C[C@H]1CO[C@@H](c2ccc(C(F)(F)F)cc2)CN1` [PAL 910, (2S,5S)-5-Methyl-2-(4-trifluoromethyl-phenyl)-morpholine], at DAT (Table 5), the “DA Rel (%)” value is on record as 15%.

The term pEC50 denotes the negative decadic logarithm of the EC50, by convention in mol/L.

Values taken from patent US9617229B2, “Phenylmorpholines and analogues thereof” (Research Triangle Institute, priority 2010, dated 2017).
